This experiment deals with Acyl-CoA:cholesterol acyl transferase (ACAT). Put plainly: Acyl-CoA:cholesterol acyl transferase (ACAT) inhibiting activity. Conditions: inhibition of labeled cholesterol ester formation at 10⁻⁶ M of the test compounds; small intestine mucosa microsome fraction. In kind it is biochemical, male Sprague-Dawley rats. More on the design: tested at 1 µM. As for the experimental part: An ACAT enzyme preparation was obtained from the small intestine mucosa microsome fraction from male Sprague-Dawley rats of 6 weeks of age fasted for 20 hours, as described by Heider et al. [Journal of Lipid Research, 24, 1127 (1982)].
The ACAT activity was calculated by determining the yield of a labeled cholesterol ester from [1-¹⁴C]oleoyl-CoA and endogenous cholesterol using the method of Helgerud et al. [Journal of Lipid Research, 22, 271 (1981)].
The inhibition percentages of the labeled cholesterol ester formation at 10⁻⁶ M of the test compounds are shown in Table 1 as ACAT inhibiting activity indices.

As for `O=C(Nc1ccc(F)cc1F)N(Cc1ccccc1)C1Cc2ccccc2C1` [Example 2, N-Benzyl-N′-(2,4-difluorophenyl)-N-(2-indanyl)urea], the “% ACAT inhibition” value is recorded as 65%.
Next, `Cc1cc(O)c(C(C)(C)C)cc1CN(C(=O)Nc1ccc(F)cc1F)C1CCCc2ccccc2C1` (centres unmarked) [Example 50, N-(5-tert-Butyl-4-hydroxy-2-methylbenzyl)-N′-(2,4-difluorophenyl)-N-(6,7,8,9-tetrahydro-5H-6-benzocycloheptenyl)urea]: 85%; `COc1cc(CN(C(=O)Nc2ccc(F)cc2F)C2CCCc3ccccc32)cc(OC)c1O` (centres unmarked) [Example 61, N-(2,4-Difluorophenyl)-N′-(4-hydroxy-3,5-dimethoxybenzyl)-N′-(1,2,3,4-tetrahydro-1-naphthyl)urea]: 53%.
Next, `COc1ccc(CN(C(=O)Nc2ccc(F)cc2F)C2Cc3ccccc3C2)c(OC)c1` [Example 20, N-(2,4-Difluorophenyl)-N′-(2-indanyl)-N′-(2,4-dimethoxybenzyl)urea]: 72%.
Next, `O=C(Nc1ccc(F)cc1F)N(Cc1ccccc1)C1CCc2ccccc21` (centres unmarked) [Example 57, N-Benzyl-N′-(2,4-difluorophenyl)-N-(1-indanyl)urea]: 84%; `O=C(Nc1ccc(F)cc1F)N(Cc1ccccc1)C1CCCc2ccccc21` (centres unmarked) [Example 58, N-Benzyl-N′-(2,4-difluorophenyl)-N-(1,2,3,4-tetrahydro-1-naphthyl)urea]: 94%; `CC(c1ccccc1)N(C(=O)Nc1ccc(F)cc1F)C1Cc2ccccc2C1` (centres unmarked) [Example 6, N-(2,4-Difluorophenyl)-N′-(2-indanyl)-N′-(1-phenylethyl)urea]: 80%.
As to `O=C(Nc1ccc(F)cc1F)N(CC1CCCCC1)C1Cc2ccccc2C1` [Example 26, N-Cyclohexylmethyl-N′-(2,4-difluorophenyl)-N-(2-indanyl)urea], the “% ACAT inhibition” value was found to be 60%.
Next, `O=C(Nc1ccc(F)cc1F)N(Cc1ccccc1)C1CCc2ccccc2C1` (centres unmarked) [Example 44, N-Benzyl-N′-(2,4-difluorophenyl)-N-(1,2,3,4-tetrahydro-2-naphthyl)urea]: 63%; `COc1ccccc1CN(C(=O)Nc1ccc(F)cc1F)C1Cc2ccccc2C1` [Example 19, N-(2,4-Difluorophenyl)-N′-(2-indanyl)-N′-(2-methoxybenzyl)urea]: 55%.
Turning to `O=C(Nc1ccc(F)cc1F)N(Cc1ccccc1)C1CCCCc2ccccc21` (centres unmarked) [Example 59, N-Benzyl-N′-(2,4-difluorophenyl)-N-(6,7,8,9-tetrahydro-5H-5-benzocycloheptenyl)urea], the “% ACAT inhibition” value is reported as 80%.
In the case of `COc1cc(CN(C(=O)Nc2ccc(F)cc2F)C2CCc3ccccc32)cc(OC)c1O` (centres unmarked) [Example 60, N-(2,4-Difluorophenyl)-N′-(4-hydroxy-3,5-dimethoxybenzyl)-N′-(1-indanyl)urea] it was 83%; in that of `Cc1cc(C)c(CN(C(=O)Nc2ccc(F)cc2F)C2Cc3ccccc3C2)c(C)c1` [Example 17, N-(2,4-Difluorophenyl)-N′-(2-indanyl)-N′-(2,4,6-trimethylbenzyl)urea], 75%.
For the molecule `COc1cc(CN(C(=O)Nc2ccc(F)cc2F)C2Cc3ccccc3C2)ccc1O` [Example 33, N-(2,4-Difluorophenyl)-N′-(4-hydroxy-3-methoxybenzyl)-N′-(2-indanyl)urea], the “% ACAT inhibition” value is on record as 57%.
As for `O=C(Nc1ccc(F)cc1F)N(Cc1ccccc1)C1CCCc2ccccc2C1` (centres unmarked) [Example 49, N-Benzyl-N′-(2,4-difluorophenyl)-N-(6,7,8,9-tetrahydro-5H-6-benzocycloheptenyl)urea], the “% ACAT inhibition” value was 89%.
In the case of `O=C(Nc1ccc(F)cc1F)N(Cc1cccs1)C1Cc2ccccc2C1` [Example 23, N-(2,4-Difluorophenyl)-N′-(2-indanyl)-N′-(2-thienylmethyl)urea] it was 57%.
Next, `Cc1ccc(C)c(CN(C(=O)Nc2ccc(F)cc2F)C2CCCc3ccccc3C2)c1` (centres unmarked) [Example 56, N-(2,4-Difluorophenyl)-N′-(6,7,8,9-tetrahydro-5H-6-benzocycloheptenyl)-N′-(2,5-dimethylbenzyl)urea]: 79%; `Cc1cc(CN(C(=O)Nc2ccc(F)cc2F)C2Cc3ccccc3C2)c(C)cc1O` [Example 37, N-(2,4-Difluorophenyl)-N′-(4-hydroxy-2,5-dimethylbenzyl)-N′-(2-indanyl)urea]: 93%; `COc1cc(CN(C(=O)Nc2ccc(F)cc2F)C2Cc3ccccc3C2)c(OC)c(C)c1C` [Example 35, N-(2,4-Difluorophenyl)-N′-(2-indanyl)-N′-(2,5-dimethoxy-3,4-dimethylbenzyl)urea]: 58%.
In the case of `Cc1cc(O)c(C(C)(C)C)cc1CN(C(=O)Nc1ccc(F)cc1F)C1Cc2ccccc2C1` [Example 41, N-(5-tert-Butyl-4-hydroxy-2-methylbenzyl)-N′-(2,4-difluorophenyl)-N-(2-indanyl)urea], the “% ACAT inhibition” value is 95%.
Next, `Cc1ccc(CN(C(=O)Nc2ccc(F)cc2F)C2Cc3ccccc3C2)cc1` [Example 12, N-(2,4-Difluorophenyl)-N′-(2-indanyl)-N′-(4-methylbenzyl)urea]: 77%.
In the case of `Cc1ccccc1CN(C(=O)Nc1ccc(F)cc1F)C1Cc2ccccc2C1` [Example 10, N-(2,4-Difluorophenyl)-N′-(2-indanyl)-N′-(2-methylbenzyl)urea] it was 72%; in that of `Cc1ccc(C)c(CN(C(=O)Nc2ccc(F)cc2F)C2Cc3ccccc3C2)c1` [Example 16, N-(2,4-Difluorophenyl)-N′-(2-indanyl)-N′-(2,5-dimethylbenzyl)urea], 86%.
In the case of `COc1cc(CN(C(=O)Nc2ccc(F)cc2F)C2CCCCc3ccccc32)cc(OC)c1O` (centres unmarked) [Example 62, N-(2,4-Difluorophenyl)-N′-(6,7,8,9-tetrahydro-5H-5-benzocycloheptenyl)-N′-(4-hydroxy-3,5-dimethoxybenzyl)urea] it was 69%; in that of `COc1cc(C)c(CN(C(=O)Nc2ccc(F)cc2F)C2Cc3ccccc3C2)cc1C` [Example 36, N-(2,4-Difluorophenyl)-N′-(2-indanyl)-N′-(4-methoxy-2,5-dimethylbenzyl)urea], 72%.
Consider `Cc1cc(C)c2c(c1)CC(N(Cc1ccccc1)C(=O)Nc1ccc(F)cc1F)C2` (centres unmarked) [Example 27, N-Benzyl-N′-(2,4-difluorophenyl)-N-(4,6-dimethyl-2-indanyl)urea], for which the “% ACAT inhibition” value was determined as 58%.
Next, `CC(C)c1ccc(CN(C(=O)Nc2ccc(F)cc2F)C2Cc3ccccc3C2)cc1` [Example 13, N-(4-Isopropylbenzyl)-N′-(2,4-difluorophenyl)-N-(2-indanyl)urea]: 86%; `COc1cc(CN(C(=O)Nc2ccc(F)cc2F)C2Cc3ccccc3C2)cc(OC)c1OC` [Example 22, N-(2,4-Difluorophenyl)-N′-(2-indanyl)-N′-(3,4,5-trimethoxybenzyl)urea]: 55%; `O=C(Nc1ccc(F)cc1F)N(Cc1ccc(Cl)cc1)C1Cc2ccccc2C1` [Example 5, N-(4-Chlorobenzyl)-N′-(2,4-difluorophenyl)-N-(2-indanyl)urea]: 76%.

For the origin of these results see EP0399422A1, “Benzocycloalkane derivatives and production thereof” (Takeda Chemical Industries, Ltd., priority 1989, dated 1990).
